Laboratory results published in ChEMBL document CHEMBL6096649, “Enantiomeric C-6 fluorinated swainsonine derivatives as highly selective and potent inhibitors of α-mannosidase and α-l-rhamnosidase: Design, synthesis and structure-activity relationship study” (Eur J Med Chem, 2025).
Calls of active or inactive are those of the source. The calls are words filed in the database; no cut-off is given here.

Legend:
Alpha-mannosidase [1] = target: T1, Alpha-mannosidase (Canavalia ensiformis, UniProt C0HJB3); assay: Inhibition of jack bean alpha-mannosidase using p-nitrophenyl glycoside as substrate assessed as release of p-nitrophenol by spectrometric analysis
T1 sequence (C0HJB3 whole entry): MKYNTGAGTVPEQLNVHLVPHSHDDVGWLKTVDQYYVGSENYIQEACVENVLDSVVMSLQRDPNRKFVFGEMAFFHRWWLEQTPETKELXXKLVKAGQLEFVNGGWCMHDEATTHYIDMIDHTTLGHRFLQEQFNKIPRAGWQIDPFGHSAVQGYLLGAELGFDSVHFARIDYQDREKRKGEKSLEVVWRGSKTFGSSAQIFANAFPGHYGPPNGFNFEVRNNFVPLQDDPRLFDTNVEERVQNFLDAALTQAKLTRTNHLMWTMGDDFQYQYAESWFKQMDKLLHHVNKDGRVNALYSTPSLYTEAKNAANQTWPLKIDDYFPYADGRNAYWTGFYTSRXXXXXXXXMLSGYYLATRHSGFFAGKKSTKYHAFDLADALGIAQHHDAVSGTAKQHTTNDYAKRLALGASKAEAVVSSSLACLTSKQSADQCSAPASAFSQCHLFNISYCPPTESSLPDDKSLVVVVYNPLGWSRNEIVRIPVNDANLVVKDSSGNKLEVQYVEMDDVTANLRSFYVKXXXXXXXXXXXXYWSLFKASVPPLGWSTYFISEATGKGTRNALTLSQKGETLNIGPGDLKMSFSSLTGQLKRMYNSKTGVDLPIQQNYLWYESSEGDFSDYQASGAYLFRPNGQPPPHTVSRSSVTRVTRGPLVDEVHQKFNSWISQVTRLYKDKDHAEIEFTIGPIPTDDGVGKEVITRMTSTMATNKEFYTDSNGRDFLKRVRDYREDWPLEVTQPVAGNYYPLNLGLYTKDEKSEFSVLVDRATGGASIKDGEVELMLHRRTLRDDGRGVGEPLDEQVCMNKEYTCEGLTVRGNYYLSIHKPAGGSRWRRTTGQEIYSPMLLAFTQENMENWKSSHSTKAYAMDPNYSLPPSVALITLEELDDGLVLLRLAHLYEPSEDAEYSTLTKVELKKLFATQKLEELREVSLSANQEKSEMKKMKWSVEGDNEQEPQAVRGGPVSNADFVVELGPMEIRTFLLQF

Homo sapiens [2] = species: Homo sapiens; assay: Inhibition of human liver Alpha-mannosidase relative to control
[3] = Inhibition of human liver Alpha-mannosidase
Alpha-mannosidase [4] = target: T1, Alpha-mannosidase; assay: Inhibition of jack bean Alpha-mannosidase using p-nitrophenyl glycoside as substrate
[5] = Inhibition of Penicillium decumbens alpha-L-rhamnosidase using p-nitrophenyl glycoside as substrate assessed as release of p-nitrophenol by spectrometric analysis
[6] = target: Alpha-glucosidase (Saccharomyces cerevisiae S288c) (UniProt P53341+P38158+P07265); assay: Inhibition of yeast Alpha-glucosidase using p-nitrophenyl glycoside as substrate assessed as p-nitrophenol release at 1000 uM by spectrometric analysis relative to control; type: protein assay
[7] = target: Alpha glucosidase (Homo sapiens) (UniProt O43451+P10253+P14410+Q2M2H8); assay: Inhibition of human Alpha-glucosidase using p-nitrophenyl glycoside as substrate assessed as p-nitrophenol release at 1000 uM by spectrometric analysis relative to control; type: protein assay
Penicillium decumbens = assay: Inhibition of Penicillium decumbens alpha-L-rhamnosidase using p-nitrophenyl glycoside as substrate assessed as release of p-nitrophenol at 1000 uM by spectrometric analysis relative to control
HepG2 = assay: Cytotoxicity activity against human HepG2 cells incubated for 48 hrs by CCK-8 assay; type: functional, cell-based; details: HepG2, 48 h
Prunus dulcis = assay: Inhibition of almond Beta-glucosidase using p-nitrophenyl glycoside as substrate assessed as release of p-nitrophenol at 1000 uM by spectrometric analysis relative to control
Bos taurus [8] = species: Bos taurus; assay: Inhibition of bovine liver beta-galactosidase using p-nitrophenyl glycoside as substrate assessed as release of p-nitrophenol at 1000 uM by spectrometric analysis relative to control
Aspergillus niger = assay: Inhibition of Aspergillus niger amyloglucosidase using p-nitrophenyl glycoside as substrate assessed as release of p-nitrophenol at 1000 uM by spectrometric analysis relative to control
CAKI-1 = assay: Cytotoxicity activity against human CAKI-1 cells incubated for 48 hrs by CCK-8 assay; type: functional, cell-based; details: CAKI-1, 48 h
Bos taurus [9] = species: Bos taurus; assay: Inhibition of bovine liver beta-glucuronidase using p-nitrophenyl glycoside as substrate assessed as release of p-nitrophenol at 1000 uM by spectrometric analysis relative to control
786-0 = assay: Cytotoxicity activity against human 786-0 cells incubated for 48 hrs by CCK-8 assay; type: functional, cell-based; details: 786-0, 48 h
Bos taurus [10] = species: Bos taurus; assay: Inhibition of bovine liver beta-glucosidase using p-nitrophenyl glycoside as substrate assessed as release of p-nitrophenol at 1000 uM by spectrometric analysis relative to control
Helix pomatia = assay: Inhibition of snail beta-mannosidase using p-nitrophenyl glycoside as substrate assessed as release of p-nitrophenol at 1000 uM by spectrometric analysis relative to control
Homo sapiens [11] = species: Homo sapiens; assay: Inhibition of human lysosome beta-glucosidase using p-nitrophenyl glycoside as substrate assessed as release of p-nitrophenol at 1000 uM by spectrometric analysis relative to control
Sus scrofa = species: Sus scrofa; assay: Inhibition of porcine kidney Alpha alpha-trehalase using p-nitrophenyl glycoside as substrate assessed as release of p-nitrophenol at 1000 uM by spectrometric analysis relative to control
Escherichia coli = assay: Inhibition of Escherichia coli beta-glucuronidase using p-nitrophenyl glycoside as substrate assessed as release of p-nitrophenol at 1000 uM by spectrometric analysis relative to control
[12] = target: T2, Alpha-mannosidase (Canavalia ensiformis) (UniProt C0HJB3); assay: Inhibition of jack bean alpha-mannosidase using p-nitrophenyl glycoside as substrate assessed as release of p-nitrophenol at 1000 uM by spectrometric analysis relative to control
T2 sequence (whole entry): T1 sequence (C0HJB3 whole entry)

[13] = target: Alpha-galactosidase (Coffea arabica) (UniProt Q42656); assay: Inhibition of coffee bean alpha-galactosidase using p-nitrophenyl glycoside as substrate assessed as release of p-nitrophenol at 1000 uM by spectrometric analysis relative to control
Rattus norvegicus = species: Rattus norvegicus; assay: Inhibition of rat intestinal Alpha-glucosidase using p-nitrophenyl glycoside as substrate assessed as p-nitrophenol release at 1000 uM by spectrometric analysis relative to control
Oryza sativa = assay: Inhibition of rice Alpha-glucosidase using p-nitrophenyl glycoside as substrate assessed as p-nitrophenol release at 1000 uM by spectrometric analysis relative to control

Alpha-galactosidase (Coffea arabica), sequence (Q42656 16-378 limits assumed): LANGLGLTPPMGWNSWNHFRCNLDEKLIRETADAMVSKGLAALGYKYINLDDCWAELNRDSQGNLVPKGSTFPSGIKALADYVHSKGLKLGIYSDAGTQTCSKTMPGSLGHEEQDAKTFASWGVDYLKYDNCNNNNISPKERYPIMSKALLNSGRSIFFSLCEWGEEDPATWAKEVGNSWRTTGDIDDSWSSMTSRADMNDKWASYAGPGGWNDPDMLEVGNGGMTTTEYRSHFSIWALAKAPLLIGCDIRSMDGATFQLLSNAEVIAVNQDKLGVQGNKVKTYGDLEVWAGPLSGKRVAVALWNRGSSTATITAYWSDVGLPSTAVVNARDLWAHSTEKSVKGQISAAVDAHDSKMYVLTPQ

With `CC(C)(C)c1ccc(CC[C@@H]2CC[C@@H](O)[C@@H]3[C@H](O)[C@H](O)CN23)cc1` the IC50 (Alpha-mannosidase [1]) was 3.7 µM.

With `OC[C@H]1O[C@H](O[C@H]2[C@H]3[C@H](O)CCCN3C[C@H]2O)[C@H](O)[C@@H](O)[C@@H]1O` the inhibition (Homo sapiens [2]) was “inactive”.

`NCC/N=C1/N[C@H](CO)[C@@H](O)[C@@H](O)[C@@H]1O` showed a Ki [3] of 6 µM and a Ki (Alpha-mannosidase [4]) of 0.006 µM.

With `C[C@@H]1C[C@H](O)[C@H]2[C@@H](O)[C@@H](O)CN2C1` the IC50 [5] was 0.034 µM.

For `O[C@H]1[C@H]2[C@H](O)C[C@H](CCOCc3ccccc3)CN2C[C@H]1O`, the IC50 (Alpha-mannosidase [1]) was 230 µM.

`O[C@H]1[C@H]2[C@H](O)C[C@H](F)CN2C[C@H]1O` showed an inhibition [6] of 1.7%, an inhibition [7] of 6.6% and an inhibition (Penicillium decumbens) of 14.4%. The IC50 (HepG2) was > 200 µM, the inhibition (Prunus dulcis) was 2.1% and the inhibition (Bos taurus [8]) was 0%. The inhibition (Aspergillus niger) was 6.4%, the IC50 (CAKI-1) was > 200 µM and the inhibition (Bos taurus [9]) was 6.8%. The IC50 (786-0) was > 200 µM, the inhibition (Bos taurus [10]) was 2.6% and the inhibition (Helix pomatia) was 5%. It also gave an inhibition (Homo sapiens [11]) of 6%, an inhibition (Sus scrofa) of 4.1% and an inhibition (Escherichia coli) of 11.3%. For the same molecule, the inhibition [12] was 0.78%, the inhibition [13] was 0% and the inhibition (Rattus norvegicus) was 19.1%.

Molecule `O[C@@H]1[C@@H]2[C@@H](O)CCCN2C[C@@H]1O` has an inhibition [6] of 0%, an inhibition [7] of 3.4% and an inhibition (Penicillium decumbens) of 0.26%. For the same molecule, the inhibition (Oryza sativa) was 0%, the inhibition (Prunus dulcis) was 7.4% and the inhibition (Bos taurus [8]) was 48.3%. It also gave an inhibition (Aspergillus niger) of 17.7%, an inhibition (Bos taurus [9]) of 0% and an inhibition (Bos taurus [10]) of 33%. For the same molecule, the inhibition (Helix pomatia) was 0%, the inhibition (Homo sapiens [11]) was 4.8% and the IC50 [5] was 0.13 µM. For the same molecule, the inhibition (Escherichia coli) was 11.3%, the inhibition [12] was 7.2% and the inhibition [13] was 0%. It also gave an inhibition (Rattus norvegicus) of 26.5%.

For `CCCC[C@H]1CCN2C[C@@H](O)[C@@H](O)[C@H]2[C@@H]1O`, the inhibition (Homo sapiens [2]) was “inactive”.

Molecule `O[C@H]1[C@H]2[C@H](O)CC(F)(F)CN2C[C@H]1O` has an inhibition [6] of 0%, an inhibition [7] of 8.9% and an inhibition (Penicillium decumbens) of 20.4%. For the same molecule, the IC50 (HepG2) was > 200 µM, the inhibition (Prunus dulcis) was 3.2% and the inhibition (Bos taurus [8]) was 13.3%. The inhibition (Aspergillus niger) was 2.7%, the IC50 (CAKI-1) was > 200 µM and the inhibition (Bos taurus [9]) was 16.7%. The IC50 (786-0) was > 200 µM, the inhibition (Bos taurus [10]) was 23.7% and the inhibition (Helix pomatia) was 40%. The inhibition (Homo sapiens [11]) was 0%, the inhibition (Sus scrofa) was 0% and the inhibition (Escherichia coli) was 0%. The inhibition [12] was 0.44%, the inhibition [13] was 0.6% and the inhibition (Rattus norvegicus) was 11.6%.

Work on `O[C@H]1[C@H]2[C@H](O)C[C@@H](F)CN2C[C@H]1O` yielded an inhibition [6] of 2.2%, an inhibition [7] of 5.6% and an inhibition (Penicillium decumbens) of 8.3%. The IC50 (HepG2) was > 200 µM, the inhibition (Prunus dulcis) was 0.5% and the inhibition (Bos taurus [8]) was 0.8%. The inhibition (Aspergillus niger) was 11.8%, the IC50 (CAKI-1) was > 200 µM and the inhibition (Bos taurus [9]) was 2.6%. The IC50 (786-0) was > 200 µM, the inhibition (Bos taurus [10]) was 5.1% and the inhibition (Helix pomatia) was 0%. For the same molecule, the inhibition (Homo sapiens [11]) was 0.4%, the inhibition (Sus scrofa) was 2.5% and the inhibition (Escherichia coli) was 0%. It also gave an inhibition [12] of 0.5%, an inhibition [13] of 0% and an inhibition (Rattus norvegicus) of 22.8%.

For `CC(C)(C)c1ccc(C(=O)C[C@@H]2CC[C@@H](O)[C@@H]3[C@H](O)[C@H](O)CN23)cc1`, the IC50 (Alpha-mannosidase [1]) was 2.54 µM.

`CC(C)(C)c1ccc(CC[C@H]2CC[C@@H](O)[C@@H]3[C@H](O)[C@H](O)CN23)cc1` showed an IC50 (Alpha-mannosidase [1]) of 0.42 µM.

Molecule `O[C@@H]1[C@@H]2[C@@H](O)[C@H](O)[C@H](O)CN2C[C@@H]1O` has an IC50 [5] of 530 µM.

For `O=C(C[C@H]1CC[C@@H](O)[C@@H]2[C@H](O)[C@H](O)CN12)c1ccccc1`, the IC50 (Alpha-mannosidase [1]) was 0.51 µM.

`C[C@@H]1[C@H](O)[C@H]2[C@@H](O)[C@@H](O)CN2C[C@@]1(C)O` gave an IC50 [5] of 21.3 µM.
